# According to patent US6890727B2, “Diagnostic assay for Alzheimer's disease: assessment of Aβ abnormalities” (The General Hospital Corporation, priority 1994, dated 2005):
# Like-named read-outs stand apart in the source and are kept apart here.
# What was measured:
# [1] = neutral pH; cited from earlier work
# [2] = 65Zn2+ binding to immobilized peptide (dot-blot, Scatchard competition analysis)
# Experimental: ^65Zn^2+ Binding Studies—Dissolved peptides (1.2 nMol, unless other wise stated) were dot-blotted onto polyvinylidene difluoride membrane (0.2-μm pore size; Pierce Chemical Co.), washed twice with chelating buffer (200 μl×100 mM NaCl, 20 mM Tris-HCl, 1 mM EDTA, pH 7.4), then five times with blocking buffer (200 μl×100 mM NaCl, 20 mM Tris-HCl, 1 mM MnCl2, pH 7.4), and then incubated (60 min, 20° C.) with ^65Zn (unless otherwise stated 130,000 cpm, […] ^65ZnCl2 in 200 μl of blocking buffer±competing metal ion chloride). The dot-blot was then washed with blocking buffer (5×200 μl), the dot excised, placed in a test tube, and assayed by γ-counting (11% efficiency). The equilibration volume for stoichiometry estimates was regarded as 6×200 μl. The 214 nm UV absorbance of the unbound flow-through was assayed to determine the total amount of peptide remaining bound onto the membrane. […] To alter the pH, the ^65Zn incubation was carried out in the presence of 100 mM buffer: MOPS (pH 6.5-7.0), MES (pH 5.0-6.0), acetate (pH 3.5-4.5). The dot-blot apparatus was washed with detergent and EDTA (50 mM) then rinsed and siliconized between use.
# Aliquots of Aβ were incubated (60 min) with ^65Zn^2+ in the presence of varying concentrations of unlabeled Zn^2+ (0.01-50 μM total). Values shown are means±S.D., n≧3. […] (FIG. 1b) depicts specificity of the Zn^2+ binding site for various metals. Aβ was incubated (60 min) with ^65 Zn^2+ (157 nM, 138,000 cpm) and competing unlabeled metal ions (50 μM total). […] Percent binding of total counts ^65Zn^2+/min added is corrected for the amounts (in nanomoles) of peptides adhering to the membrane. […] 157 nM ^65Zn (138,000 cpm) is used in this experiment to probe immobilized peptide (1.6 nmol).
# [3] = Aβ incubation with column components, UV absorption before and after; format: physicochemical
# Experimental: To determine the part of the column onto which Aβ was precipitating, Aβ solutions were incubated with various column components and assayed by UV absorption before and after incubation. Replicating the chromatography experimental conditions, Aβ (100 μM in equilibration buffer) was incubated for 1 h in plastic reaction vessels with or without the presence of Sephadex.
# [4] = Aβ binding to kaolin (aluminum silicate); format: physicochemical
# Experimental: Aβ Binding to Kaolin (Aluminum Silicate)—Kaolin suspension was prepared in high performance liquid chromatography water (Fisher), defined, and adjusted to 50% (v/v). Aβ (40 μg) was incubated in siliconized reaction vessels with either kaolin or Sephadex G50 SF (10 μl×50% (v/v)) in Cu^2+, Zn^2+, or EDTA (100 μl in TBS, 5 min, room temperature). The suspension was then pelleted (1500×g, 3 min) and the supernatant removed and diluted 20-fold with water to bring the UV absorbance readings into the linear range. Samples were assayed at 214 nm before and after incubation with kaolin or Sephadex.
# (FIG. 3a) depicts concentration (by 214 nm absorbance) of Aβ remaining in supernatant after incubation with 10 mg of G50 Sephadex. (FIG. 3b) depicts concentration (by 214 nm absorbance) of Aβ remaining in supernatant after incubation with 10 mg of kaolin, expressed as percent of the starting absorbance.
# [5] = test system: trypsin; experiment: Tryptic digestion of Aβ after incubation with Zn2+; format: biochemical; conditions: increasing zinc concentrations
# Experimental: Tryptic Digestion of Aβ-Aβ1-40 (13.9 μg) was incubated with Zn^2+ ([…] in blocking buffer, 1 h, 37° C.) and then digested with trypsin (12 ng, 3 h, 37° C.). The reaction was stopped by adding SDS sample buffer containing phenylmethylsulfonyl fluoride (1 mM), boiling the samples (5 min), and applying the samples to Tris/Tricine gel electrophoresis and transfer. The blot was washed with EDTA, Coomassie-stained, incubated with ^65Zn^2+, individual bands were excised, assayed for ^65Zn^2+ binding, and N-terminal sequenced to confirm the identity of the digestion products. The effects of Zn^2+ (up to 100 μM in TBS) on the activity of trypsin, itself, were assayed by assay of Z-Arg-amido-4-methylcoumarin (Sigma) fluorescent cleavage product and determined to be negligible.
# (FIG. 4a) depicts a blot of tryptic digests of Aβ (13.9 μg) after incubation with increasing concentrations of zinc (lane labels, in micromolar), stained by Coomassie Blue. […] The migration of the low molecular size markers (STD) are indicated (in kilodaltons) on the right. (FIG. 4b) depicts ^65Zn^2+ binding to Aβ tryptic digestion products. The blot in 4a was incubated with ^65Zn^2+, the visible bands excised, and the bound counts for each band determined.
# [6] = Zinc-induced tinctorial amyloid formation (Congo Red, polarized light); format: physicochemical
# Experimental: FIGS. 8a and 8b are photographs showing zinc-induced tinctorial amyloid formation. […] The particle diameter is 40μ. […] The experiment was repeated with EDTA (50 μM) substituted for Zn^2+ and yielded no visible material.
# The particle diameter is 40μ. […] The experiment was repeated with EDTA (50 μM) substituted for Zn^2+ and yielded no visible material.
# [7] = not given; remark: listed apart in the source
# [8] = 65Zn2+ binding to immobilized peptide (dot-blot, Scatchard competition analysis); conditions: 1 min
# [9] = 20 μM in PBS, cited from earlier work
# [10] = centrifugation studies; cited from earlier work
substance,measurement,setting,value
"insulin: insulin, literature comparison for zinc binding",stoichiometric ratio Zn^2+:insulin in excess of which the peptide precipitates,[1],> 0.33
"Aβ1-40: synthetic peptide representing secreted human Aβ1-40, 4.3 kDa, main component of Alzheimer cerebral amyloid",time at which ^65Zn^2+ binding plateaued,[2],1 h
same,^65Zn^2+ binding at lower pH,[2]; pH 6.0,30 % of Bmax
same,binding to Sephadex,"[3]; Aβ 100 μM, 1 h",< 1%
same,loss to siliconized plastic,"[3]; Aβ 100 μM, 1 h",< 1%
same,adsorption in borosilicate glass test tubes,[3]; without zinc,20%
same,adsorption in borosilicate glass test tubes,[3]; zinc 25 μM,35%
same,reversibility of binding to kaolin,[4]; 10 mM EDTA,not reversible
same,precipitation of the peptide by kaolin,"[4]; Aβ 0.4 mg/ml, kaolin 5% v/v, 5 min, room temperature",up to 87%
same,effect of zinc on rate of tryptic digestion of the peptide,[5],is inhibited by the presence of zinc
same,Zn^2+ concentration inducing amyloid by tinctorial criteria,[6]; Congo Red,3 µM
same,particle diameter of zinc-induced precipitate,"[6]; peptide 25 μM, Zn^2+ 25 μM, 30 minutes, 37° C.",40 μ
same,>0.2μ particle assembly following incubation with EDTA,EDTA,10-20%
same,near-instantaneous aggregation into >0.2μ particles,"EDTA buffer, peptide 1.6 μM",20%
same,peptide aggregated into >0.2μ particles,"EDTA, higher peptide concentrations",≈ 15%
same,peptide aggregated into >0.2μ particles,"EDTA, peptide 0.8 μM",no detectable aggregation
same,peptide aggregated into >0.2μ particles,"Zn^2+ 25 μM, 30 minutes, various peptide concentrations",up to 80%
same,peptide aggregated into >0.2μ particles,"Zn^2+ 25 μM, peptide 0.8 μM",> 70%
same,particle assembly rate of second phase,"Zn^2+ 25 μM, peptide 1.6 μM",3.2 nM/min
same,time to steady state of the second phase,"Zn^2+ 25 μM, peptide 1.6 μM",≤ 2 min
same,half-maximal assembly rate of initial phase,"Zn^2+ 25 μM, peptide 1.6 μM, pH 7.4",≈ 0.4 μM/min
same,time until available peptide is exhausted,at second-phase rate,within five hours
same,"peptide that would aggregate into >0.2μ particles, extrapolated","curve of FIG. 6A extrapolated to 0.6 nM peptide, Zn^2+ 25 μM",25%
same,peptide recovered when retained aggregates are washed with EDTA,"[7]; >0.65 aggregates, EDTA 50 μM",22%
same,proportion of particles >0.1μ,"[7]; EDTA, peptide 1.6 μM",47%
same,proportion of particles >0.22μ,"[7]; EDTA, peptide 1.6 μM",40%
same,proportion of particles >0.65μ,"[7]; EDTA, peptide 1.6 μM",32%
same,increase of proportion of >0.1μ particles following incubation with Zn^2+,[7]; Zn^2+ 25 μM vs EDTA,50%
same,increase of proportion of >0.22μ particles following incubation with Zn^2+,[7]; Zn^2+ 25 μM vs EDTA,55%
same,proportion of particles >0.65μ,"[7]; Zn^2+ 25 μM, peptide 1.6 μM",82%
same,additional ≦0.22μ peptide resolubilized by EDTA treatment,[7]; compared with >0.65 aggregates,7%
same,^65Zn^2+ binding at 1 min,[8],60 % Bmax
same,time stable in solution,[9]; pH 7.4,10 days
same,time to half-maximal aggregation,[9]; seeded with Aβ1-42 (2 μM),4 to 5 days
"^125I-human Aβ1-40: human Aβ1-40 iodinated on the tyrosine residue at position 10, tracer",Zn^2+ concentration required to precipitate,[10],1 mM
